# Laboratory results: US8377948B2, “Antitumor agents and methods of their use” (The Ohio State University Research Foundation, priority 2004, dated 2013)
# Columns and labels:
# PC-3 cells [1] = test: MTT cell viability assay, PC-3 cells in 10% FBS medium; format: cell-based, human; conditions: RPMI 1640 with 10% FBS, means ± S.D. (n = 6)
# Procedure: PC-3 (p53−/−) human androgen-nonresponsive prostate cancer cells were purchased from the American Type Tissue Collection (Manassas, Va.). Cells were cultured in RPMI 1640 medium (Gibco, Grand Island, N.Y.) supplemented with 10% fetal bovine serum (FBS; Gibco) at 37° C. in a humidified incubator containing 5% CO2.
# (§1) Effect of the test agent on cell viability was assessed by the MTT {[3-(4,5-dimethylthiazol-2-yl)-2,5-diphenyl-2H-tetrazolium bromide]} assay in 96-well, flat-bottomed plates, in which 8,000 PC-3 or DU-145 cells/well were seeded. Cells were exposed to the test agent at the indicated concentrations, in six replicates, in 10% FBS-supplemented-RPMI-1640 medium at 37° C. in 5% CO2 for 48 hr. The medium was removed and replaced by 150 μL of 0.5 mg/mL of MTT in RPMI-1640 medium, and cells were incubated in the CO2 incubator at 37° C. for 2 h. Supernatants were removed from the wells, and the reduced MTT dye was solubilized with 200 μL/well DMSO. Absorbance was determined on a plate reader at 570 nm.
# All compounds were evaluated for their ability to induce apoptotic death in human androgen-independent PC-3 prostate cancer in RPMI 1640 medium containing 10% fetal bovine serum (FBS). For representative compounds tested in DU-145 and LNCaP prostate cancer cells, the IC50 values for inhibiting cell proliferation were similar in these three cell lines irrespective of differences in androgen sensitivity, PTEN mutation, the functional status of p53 and Rb, and other biomarkers.
# PC-3 cells [2] = test: Cell viability / apoptotic death of PC-3 cells in 1% FBS-supplemented RPMI 1640 medium; format: cell-based, human; conditions: for IC50: 1% FBS-supplemented medium
# Excerpt: (§2) (A) Left panel, Time- and dose-dependent effect of doxazosin on the cell viability of PC-3 cells in 1% FBS-supplemented RPMI 1640 medium. Values obtained from six replicates were plotted at each time point at the indicated concentrations of doxazosin. Right panel, induction of poly(ADP-ribose) polymerase (PARP) cleavage by doxazosin at the indicated concentrations after 48-h treatment. PARP proteolysis to the apoptosis-specific 85-kd fragment was monitored by Western blotting. Although there was no substantial accumulation of the 85-kd fragment, significant decrease in the level of native protein was noted. (B) Dose- and time-dependent (upper and lower panels, respectively) effects of doxazosin on Akt phosphorylation. (C) dose-dependent effect of doxazosin on ERK phosphorylation. PC-3 cells were treated with doxazosin at the indicated concentrations for 24 h or at 25 μM for the indicated times and lysed, and proteins in the resulting supernatants were resolved on SDS-PAGE and subjected to Western blot analysis. The phosphorylation status of Akt and ERKs was determined by immunoblotting with the respective phospho-specific antibodies. Unphosphorylated Akt and ERKs, as immunostained by anti-Akt and anti-ERK antibodies, were used as internal standards for the comparison of phospho-Akt and phospho-ERK levels among samples of different preparations. The blots are representative of three independent experiments.
# (§3) (B) Western blot analysis of […] proteolysis and Akt dephosphorylation in PC-3 cells treated with the indicated concentrations of 33 for 48 h. (C) Effects of compound 44 on Akt phosphorylation in PC-3 cells treated with the indicated concentrations for 48 h.
# as §1
# Doxazosin induced apoptosis, in part, by facilitating Akt dephosphorylation. […] The potency of doxazosin in inducing apoptosis, however, was moderate.
# Akt = test: Western blot analysis of Akt phosphorylation in PC-3 cells; format: cell-based, human; conditions: for effect on Akt phosphorylation: Western blot
# Excerpt: as §2, §3
# PC-3 cells (1.5×106) treated with the test agent at the indicated concentrations in RPMI 1640 medium for 24 h were collected and sonicated. Protein concentrations of the lysates were determined by using a Bradford protein assay kit (Bio-Rad, Hercules, Calif.); equivalent amounts of proteins from each lysate were resolved in 10% SDS-polyacrylamide gel and then transferred onto Immobilon-nitrocellulose membranes (Millipore, Bellerica, MA) in a semidry transfer cell. The transblotted membrane was washed twice with Tris-buffered saline (TBS) containing 0.1% Tween 20 (TBST). After blocking with TBST containing 5% nonfat milk for 40 min, the membrane was incubated with the primary antibody (1:1000 dilution) in TBST-1% nonfat milk at 4° C. overnight. After treatment with the primary antibody, the membrane was washed three times with TBST for a total of 15 min, followed by goat anti-rabbit or anti-mouse IgG-horseradish peroxidase conjugates (diluted 1:3000) for 1 h at room temperature and wash three times with TBST for a total of 1 h. The immunoblots were visualized by enhanced chemiluminescence.
# [3] = tested on: sixty human tumor cells lines; test: NCI Developmental Therapeutic Program screening against sixty human tumor cell lines; format: cell-based; conditions: for GI50: Homo sapiens, mean among sixty cell lines, read-out: mean GI50 (concentration resulting in 50% growth inhibition); for sensitivity of all tested cell lines to growth inhibitory effects: sixty cell lines
# Excerpt: (§4) Further structural improvement was accomplished by replacing the methoxy side chains on the quinazoline ring with propoxy functions. Both 33 and 44 were effective in suppressing the proliferation of different prostate cancer cell lines at low μM levels. In addition, both agents were submitted to the Developmental Therapeutic Program (DTP) at the National Cancer Institute (NCI) for screening against sixty human tumor cells lines, representing leukemia, melanoma, and cancers of lung, colon, brain, ovary, breast, prostate, and kidney.
# [4] = tested on: different prostate cancer cell lines; test: Proliferation of different prostate cancer cell lines; format: cell-based; conditions: at low μM levels
# Excerpt: as §4
# ERKs = test: Western blot analysis of ERK phosphorylation in PC-3 cells; format: cell-based, human; conditions: even at 50 μM
# Excerpt: (A) Left panel, Time- and dose-dependent effect of doxazosin on the cell viability of PC-3 cells in 1% FBS-supplemented RPMI 1640 medium. Values obtained from six replicates were plotted at each time point at the indicated concentrations of doxazosin. Right panel, induction of poly(ADP-ribose) polymerase (PARP) cleavage by doxazosin at the indicated concentrations after 48-h treatment. PARP proteolysis to the apoptosis-specific 85-kd fragment was monitored by Western blotting. Although there was no substantial accumulation of the 85-kd fragment, significant decrease in the level of native protein was noted. (B) Dose- and time-dependent (upper and lower panels, respectively) effects of doxazosin on Akt phosphorylation. (C) dose-dependent effect of doxazosin on ERK phosphorylation. […] The phosphorylation status of Akt and ERKs was determined by immunoblotting with the respective phospho-specific antibodies. […]
# PC-3 cells (1.5×106) treated with the test agent at the indicated concentrations in RPMI 1640 medium for 24 h were collected and sonicated. Protein concentrations of the lysates were determined by using a Bradford protein assay kit (Bio-Rad, Hercules, Calif.); equivalent amounts of proteins from each lysate were resolved in 10% SDS-polyacrylamide gel and then transferred onto Immobilon-nitrocellulose membranes (Millipore, Bellerica, MA) in a semidry transfer cell. […]
# immunoprecipitated Akt = immunoprecipitated Akt (Homo sapiens, UniProt P31749); test: Kinase activity of immunoprecipitated Akt; format: biochemical
# [5] = tested on: PC-3 cells overexpressing Akt^T308D/S473D; test: Viability of PC-3 cells transiently transfected with constitutively active Akt; format: cell-based, human; conditions: 25 μM, 1% FBS-supplemented medium, 24 h, versus empty pcDNA vector
# Procedure: (A) Expression of Akt^T308D/S473D in PC-3 transient transfection. Western blot analysis used antibodies against Akt, and the HA tag. B) Viability of PC-3 cells overexpressing Akt^T308D/S473D vis-à-vis cells transfected with empty pcDNA vector (mock) in the presence of 25 μM doxazosin in 1% FBS-supplemented medium for 24 h. Values are means±S.D. (n=3).
# The constitutively active Akt construct HA-PKB-T308D/S473D was kindly provided by Dr. Brain Hemmings (Friedrich Miescher Institute, Basel, Switzerland). PC-3 cells were seeded into T-75 flasks (1.5×10^6/flask). Aliquots containing 3 μg of each plasmid or a control pcDNA3.1(+) vector in 750 μl of Opti-MEM medium (Invitrogen-Life Technologies, Inc.,) was incubated with 9 μl of the FuGene 6 reagent (Roche Diagnostics Corp., Indianapolis, Ind.) for 15 min. Each flask was washed with Opti-MEM medium and then received the plasmid-FuGene 6 mixture and 4 ml of Opti-MEM medium. The flask was placed in a CO2 incubator for 4 h, and the transfection medium was replaced with 10% FBS-supplemented RPMI 1640. […]
# To examine the causal relationship between Akt deactivation and doxazosin-mediated apoptosis, the protective effect of the transient transfection of constitutively active Akt, Akt^T308D/S473D (ref. 14), on drug-induced PC-3 cell death, was assessed. […]
# serum proteins = conditions: cited from earlier work
# Chain of immunoprecipitated Akt (P31749 whole entry): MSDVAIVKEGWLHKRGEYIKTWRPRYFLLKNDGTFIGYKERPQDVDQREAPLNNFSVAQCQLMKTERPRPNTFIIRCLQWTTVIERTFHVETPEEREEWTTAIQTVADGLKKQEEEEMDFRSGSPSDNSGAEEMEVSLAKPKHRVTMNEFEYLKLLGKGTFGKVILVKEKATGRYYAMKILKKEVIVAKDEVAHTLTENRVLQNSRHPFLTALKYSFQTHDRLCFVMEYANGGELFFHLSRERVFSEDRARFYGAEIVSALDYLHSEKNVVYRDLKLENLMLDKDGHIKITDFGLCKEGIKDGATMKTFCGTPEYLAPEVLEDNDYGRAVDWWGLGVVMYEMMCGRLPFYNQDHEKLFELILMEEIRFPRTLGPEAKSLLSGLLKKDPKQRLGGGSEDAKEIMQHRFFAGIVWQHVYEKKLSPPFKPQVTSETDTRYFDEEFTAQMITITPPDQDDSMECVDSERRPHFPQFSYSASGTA
smiles,measurement,setting,value
"COc1cc2nc(N3CCN(S(=O)(=O)c4ccc(-c5ccccc5)cc4)CC3)nc(N)c2cc1OC [Compound 33, 2-[4-(Biphenyl-4-sulfonyl)-piperazin-1-yl]-6,7-dimethoxy-quinazolin-4-ylamine]",IC50,"PC-3 cells [1]; Homo sapiens, PC-3, 48 h",4 to 5 µM
same,IC50,PC-3 cells [1]; 48 h,4.2 ± 0.8 µM
same,IC50,"PC-3 cells [2]; Homo sapiens, 48 h, read-out: IC50",~2.5 µM
same,effect on Akt phosphorylation,Akt,inhibition of Akt activation
same,GI50,[3],2.2 µM
same,sensitivity of all tested cell lines to growth inhibitory effects,[3],high degree of sensitivity
same,suppressing the proliferation,[4],effective
"COc1cc2nc(N3CCN(S(=O)(=O)c4ccc(-c5cc6ccccc6c6ccccc56)cc4)CC3)nc(N)c2cc1OC [Compound 35, 6,7-Dimethoxy-2-[4-(4-phenanthren-9-yl-benzenesulfonyl)-piperazin-1-yl]-quinazolin-4-ylamine]",IC50,"PC-3 cells [1]; Homo sapiens, PC-3, 48 h",4 to 5 µM
same,IC50,PC-3 cells [1]; 48 h,5.2 ± 0.9 µM
"COc1cc2nc(N3CCN(S(=O)(=O)c4ccc(-c5ccc(C)cc5)cc4)CC3)nc(N)c2cc1OC [Compound 36, 6,7-Dimethoxy-2-[4-(4′-methyl-biphenyl-4-sulfonyl)-piperazin-1-yl]-quinazolin-4-yl-amine]",IC50,"PC-3 cells [1]; Homo sapiens, PC-3, 48 h",3.4 ± 0.4 µM
"COc1cc2nc(N3CCN(S(=O)(=O)c4ccc(-c5ccc(C(F)(F)F)cc5)cc4)CC3)nc(N)c2cc1OC [Compound 37, 6,7-Dimethoxy-2-[4-(4′-trifluoromethyl-biphenyl-4-sulfonyl)-piperazin-1-yl]-quinazolin-4-yl-amine]",IC50,"PC-3 cells [1]; Homo sapiens, PC-3, 48 h",3.3 ± 0.3 µM
"COc1cc2nc(N3CCN(S(=O)(=O)c4ccc(-c5ccc(S(C)(=O)=O)cc5)cc4)CC3)nc(N)c2cc1OC [Compound 38, 2-[4-(4′-Methanesulfonyl-biphenyl-4-sulfonyl)-piperazin-1-yl]-6,7-dimethoxy-quinazolin-4-ylamine]",IC50,"PC-3 cells [1]; Homo sapiens, PC-3, 48 h",7.2 ± 0.5 µM
"CCCCc1ccc(-c2ccc(S(=O)(=O)N3CCN(c4nc(N)c5cc(OC)c(OC)cc5n4)CC3)cc2)cc1 [Compound 39, 2-[4-(4′-Butyl-biphenyl-4-sulfonyl)-piperazin-1-yl]-6,7-dimethoxy-quinazolin-4-yl-amine]",IC50,"PC-3 cells [1]; Homo sapiens, PC-3, 48 h",3.4 ± 0.2 µM
"COc1cc2nc(N3CCN(S(=O)(=O)c4ccc(-c5ccc(C(C)(C)C)cc5)cc4)CC3)nc(N)c2cc1OC [Compound 40, 2-[4-(4′-tert-Butyl-biphenyl-4-sulfonyl)-piperazin-1-yl]-6,7-dimethoxy-quinazolin-4-yl-amine]",IC50,"PC-3 cells [1]; Homo sapiens, PC-3, 48 h",10 ± 2 µM
"C=CCOc1cc2nc(N3CCN(S(=O)(=O)c4ccc(-c5ccccc5)cc4)CC3)nc(N)c2cc1OCC=C [Compound 43, 6,7-Bis-allyloxy-2-[4-(biphenyl-4-sulfonyl)-piperazin-1-yl]-quinazolin-4-ylamine]",IC50,"PC-3 cells [1]; Homo sapiens, PC-3, 48 h",3.3 ± 0.4 µM
"CCCOc1cc2nc(N3CCN(S(=O)(=O)c4ccc(-c5ccccc5)cc4)CC3)nc(N)c2cc1OCCC [Compound 44, 2-[4-(Biphenyl-4-sulfonyl)-piperazin-1-yl]-6,7-dipropoxy-quinazolin-4-yl-amine]",IC50,"PC-3 cells [1]; Homo sapiens, PC-3, 48 h",2.5 µM
same,concentration at which dephosphorylation of phospho-Akt was evident (as low as),"Akt; 48 h, Western blot (FIG. 6C)",1 µM
same,effect on Akt phosphorylation,Akt,dephosphorylation of phospho-Akt in a dose-dependent manner
same,GI50,[3],1.5 µM
same,sensitivity of all tested cell lines to growth inhibitory effects,[3],high degree of sensitivity
same,suppressing the proliferation,[4],effective
"CC(C)Oc1cc2nc(N3CCN(S(=O)(=O)c4ccc(-c5ccccc5)cc4)CC3)nc(N)c2cc1OC(C)C [Compound 45, 2-[4-(Biphenyl-4-sulfonyl)-piperazin-1-yl]-6,7-diisopropoxy-quinazolin-4-yl-amine]",IC50,"PC-3 cells [1]; Homo sapiens, PC-3, 48 h",24 µM
"CCCCOc1cc2nc(N3CCN(S(=O)(=O)c4ccc(-c5ccccc5)cc4)CC3)nc(N)c2cc1OCCCC [Compound 46, 2-[4-(Biphenyl-4-sulfonyl)-piperazin-1-yl]-6,7-dibutoxy-quinazolin-4-ylamine]",IC50,"PC-3 cells [1]; Homo sapiens, PC-3, 48 h",3.5 ± 0.4 µM
COc1cc2nc(N3CCN(C(=O)C4COc5ccccc5O4)CC3)nc(N)c2cc1OC (centres unmarked) [Doxazosin],IC50,PC-3 cells [1]; 48 h,45 µM
same,apoptotic death,"PC-3 cells [2]; 1% FBS-supplemented RPMI 1640, 10 μM",no appreciable apoptotic death
same,drug-induced apoptosis,"PC-3 cells [2]; 1% FBS-supplemented RPMI 1640, 25 μM and up",susceptible to the drug-induced apoptosis
same,IC50,"PC-3 cells [2]; read-out: IC50, apoptosis-inducing potency",20 µM
same,effect on Akt phosphorylation,Akt,Akt dephosphorylation in a dose- and time-dependent manner
same,effect on phosphorylation status of ERKs,ERKs,did not affect
same,inhibitory effect on kinase activity of immunoprecipitated Akt,immunoprecipitated Akt,no inhibitory effects
same,protection by Akt^T308D/S473D against drug-induced apoptotic death,[5],"partial, yet significant, protection"
same,binding affinity with serum proteins,serum proteins,high binding affinity
